Where two headings read alike, the source gives them in different places.
What was measured:
[1] = tested on: PBMCs plus granulocytes stimulated with A549 viral soup; format: cell-based, human; conditions: immune cells, pre-incubation, FIG. 8
[2] = tested on: p38MAPK and HSP27 phosphorylation in A549 cells; experiment: Western blotting of p38MAPK and HSP27 phosphorylation in A549 cells after A549 viral soup; format: cell-based, human; conditions: FIG. 6
[3] = tested on: HSP27 phosphorylation in Peripheral Blood Mononuclear Cells (PBMCs); experiment: Western blotting of HSP27 phosphorylation in immune cells (PBMCs) after A549 viral soup; format: cell-based, human; conditions: pre-incubation, FIG. 8
[4] = tested on: HSP27 phosphorylation in HUVEC cells; experiment: Western blotting of HSP27 phosphorylation in HUVEC cells after HBEC viral soup; format: cell-based, human; conditions: pre-incubation
influenza virus = conditions: 14% among controls, cited from earlier work
[5] = tested on: HUVECs stimulated with HBEC viral soup; format: cell-based, human; conditions: for iMax IP10: maximal inhibition, HUVEC, HBEC viral soup, secreted IP10; for levels of IP10 at higher drug concentrations: endothelial cells (HUVECs) stimulated with 70% HBEC viral soup, FIG. 10

Cc1cc(F)ccc1-c1nc(NC(CO)CO)nc2c1ccc(=O)n2-c1c(F)cccc1F [Dilmapimod, 8-(2,6-difluorophenyl)-2-(1,3-dihydroxypropan-2-ylamino)-4-(4-fluoro-2-methylphenyl)pyrido[2,3-d]pyrimidin-7-one]
A549 viral soup induced release of CXCL8 [1]: significantly attenuate
A549 viral soup induced release of IL-1-β [1]: significantly attenuate
A549 viral soup induced release of IL-6 [1]: significantly attenuate
A549 viral soup induced release of TNFα [1]: significantly attenuate
induction of HSP27 phosphorylation by A549 viral soup [2]: dose dependently inhibit
induction of p38MAPK phosphorylation by A549 viral soup [2]: dose dependently inhibit
induction of HSP27 phosphorylation by A549 viral soup [3]: dose dependently inhibit
induction of HSP27 phosphorylation by HBEC viral soup [4]: dose dependently inhibit

CC[C@H]1OC(=O)[C@H](C)[C@@H](O[C@H]2C[C@@](C)(OC)[C@@H](O)[C@H](C)O2)[C@H](C)[C@@H](O[C@@H]2O[C@H](C)C[C@H](N(C)C)[C@H]2O)[C@](C)(O)C[C@@H](C)C(=O)[C@H](C)[C@@H](O)[C@]1(C)O [EM, erythromycin]
survival rate of the virus-infected mice at Day 20 of infection (influenza virus; 1.0 mg/kg/d): 42%
survival rate of the virus-infected mice at Day 20 of infection (influenza virus; 3.3 mg/kg/d): 57%

CNC(=O)c1ccc(C)c(-n2c(C)cc(OCc3ccc(F)cc3F)c(Br)c2=O)c1 [PH797804, 3-[3-bromo-4-[(2,4-difluorophenyl)methoxy]-6-methyl-2-oxopyridin-1-yl]-N,4-dimethylbenzamide]
A549 viral soup induced release of CXCL8 [1]: significantly attenuate
A549 viral soup induced release of IL-1-β [1]: significantly attenuate
A549 viral soup induced release of IL-6 [1]: significantly attenuate
A549 viral soup induced release of TNFα [1]: significantly attenuate
iMax IP10 [5]: 88%
induction of HSP27 phosphorylation by A549 viral soup [2]: dose dependently inhibit
induction of p38MAPK phosphorylation by A549 viral soup [2]: dose dependently inhibit
induction of HSP27 phosphorylation by A549 viral soup [3]: dose dependently inhibit
induction of HSP27 phosphorylation by HBEC viral soup [4]: dose dependently inhibit

CC[C@H](C)C(=O)O[C@H]1C[C@H](O)C=C2C=C[C@H](C)[C@H](CC[C@@H](O)C[C@@H](O)CC(=O)O)[C@H]21 [Pravastatin]
iMax IP10 [5]: 35%

Nc1ccc2ncnc(NCCc3ccc(Oc4ccccc4)cc3)c2c1 [QNZ (EVP4593)]
iMax IP10 [5]: 72%

COc1cc(F)c(F)c(Nc2ccc(I)cc2F)c1NS(=O)(=O)C1(C[C@H](O)CO)CC1 [Refametinib]
levels of IP10 at higher drug concentrations [5]: appeared to increase levels of IP10

Selumetinib
levels of IP10 at higher drug concentrations [5]: appeared to increase levels of IP10

From patent US11339207B2, “Methods and compounds for the treatment or prevention of severe influenza” (priority 2016, dated 2022)
